Assay results taken from US20230077362A1 (CORTEVA AGRISCIENCE LLC, priority 2019, published 2023).
Where two headings read alike, the source gives them in different places.

How the values were obtained:
[1] = tested on: Cabbage Looper (Trichoplusia ni) ("CL"), second instar larvae; test: Bioassay on cabbage looper (CL), 128-well diet tray assay; type: in vivo; settings: for pest or weed control at 50 µg/cm2: Trichoplusia ni; for CL rating: Table ABC, species CL, C = not tested, D = no activity noticed
Procedure, shortened: (§1)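 Covered trays were held at 25° C. under a 14:10 light-dark cycle for five to seven days. Percent mortality was then scored in each well, and activity across eight wells was averaged.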

[2] = tested on: Beet Armyworm (Spodoptera exigua) ("BAW"), second instar larvae; test: Bioassay on beet armyworm (BAW), 128-well diet tray assay; type: in vivo; settings: for pest or weed control at 50 µg/cm2: Spodoptera exigua; for BAW rating: Table ABC, species BAW, C = not tested, D = no activity noticed
Procedure, shortened: as §1

[3] = read-out: CL (Biological Results, rating)
[4] = read-out: BAW (Biological Results, rating)

Row | Compound | pest or weed control at 50 µg/cm2 [1, 3] | pest or weed control at 50 µg/cm2 [2, 4] | pest or weed control at 50 µg/cm2 ([1]; read-out: CL rating) | pest or weed control at 50 µg/cm2 ([2]; read-out: BAW rating) | further results
1 | CCNc1ccc(C(C)C)c(N2C(=O)CS/C2=N\C(=O)Nc2ccc(-c3ncn(-c4ccc(OC(F)(F)F)cc4)n3)cc2F)c1 [Compound J106, (Z)-1-(3-(5-(Ethylamino)-2-isopropylphenyl)-4-oxothiazolidin-2-ylidene)-3-(2-fluoro-4-(1-(4-(trifluoromethoxy)phenyl)-1H-1,2,4-triazol-3-yl)phenyl)urea] | 50 to 100% | 50 to 100% | – | – | –
2 | Cc1ccc(C(C)C)c(N2C(=O)CS/C2=N\C(=O)Nc2ccc(-c3cn(-c4ccc(OC(F)(F)F)cc4)cn3)cc2F)c1 [Compound J473, (Z)-1-(2-Fluoro-4-(1-(4-(trifluoromethoxy)phenyl)-1H-imidazol-4-yl)phenyl)-3-(3-(2-isopropyl-5-methylphenyl)-4-oxothiazolidin-2-ylidene)urea] | – | – | 50 to 100% | 50 to 100% | –
3 | Cc1ccc(OCCC(F)(F)F)c(N2C(=O)C(Cl)S/C2=N\C(=O)Nc2ccc(-c3ncn(-c4ccc(C(F)(F)F)cc4)n3)cc2)c1 (centres unmarked) [Compound J317, (Z)-1-(5-Chloro-3-(5-methyl-2-(3,3,3-trifluoropropoxy)phenyl)-4-oxothiazolidin-2-ylidene)-3-(4-(1-(4-(trifluoromethyl)phenyl)-1H-1,2,4-triazol-3-yl)phenyl)urea] | 50 to 100% | 50 to 100% | – | – | –
4 | Cc1ccc(OCCC(F)(F)F)c(N2C(=O)CS/C2=N\C(=O)Nc2ccc(-c3ncn(-c4ccc(S(=O)(=O)C(F)(F)F)cc4)n3)cc2C)c1 [Compound J373, (Z)-1-(3-(5-Methyl-2-(3,3,3-trifluoropropoxy)phenyl)-4-oxothiazolidin-2-ylidene)-3-(2-methyl-4-(1-(4-((trifluoromethyl)sulfonyl)phenyl)-1H-1,2,4-triazol-3-yl)phenyl)urea] | – | – | 50 to 100% | 50 to 100% | –
5 | CC(C)c1cc(F)c(N(C)C)cc1N1C(=O)CS/C1=N\C(=O)Nc1ccc(-c2ncn(-c3ccc([S+]([O-])C(F)(F)F)cc3)n2)cc1F (centres unmarked) [Compound J384, (Z)-1-(3-(5-(Dimethylamino)-4-fluoro-2-isopropylphenyl)-4-oxothiazolidin-2-ylidene)-3-(2-fluoro-4-(1-(4-((trifluoromethyl)sulfinyl)phenyl)-1H-1,2,4-triazol-3-yl)phenyl)urea] | – | – | 50 to 100% | 50 to 100% | –
6 | Cc1ccc(-c2ccco2)c(N2C(=O)CS/C2=N\C(=O)Nc2ccc(-c3ncn(-c4ccc(OC(F)(F)F)cc4)n3)cc2F)c1 [Compound J489, (Z)-1-(2-Fluoro-4-(1-(4-(trifluoromethoxy)phenyl)-1H-1,2,4-triazol-3-yl)phenyl)-3-(3-(2-(furan-2-yl)-5-methylphenyl)-4-oxothiazolidin-2-ylidene)urea] | – | – | 50 to 100% | 50 to 100% | –
7 | COC(C)c1ccc(C)cc1N1C(=O)CS/C1=N\C(=O)Nc1ccc(-n2cnc(-c3ccc(C(F)(F)F)cc3)n2)cc1F (centres unmarked) [Compound J695, (Z)-1-(2-Fluoro-4-(3-(4-(trifluoromethyl)phenyl)-1H-1,2,4-triazol-1-yl)phenyl)-3-(3-(2-(1-methoxyethyl)-5-methylphenyl)-4-oxothiazolidin-2-ylidene)urea] | – | – | 50 to 100% | 50 to 100% | –
8 | CC(C)c1ccc(C#N)cc1N1C(=O)CS/C1=N\C(=O)Nc1ccc(-n2cnc(-c3ccc(OC(F)(F)F)cc3)n2)cc1 [Compound J407, (Z)-1-(3-(5-Cyano-2-isopropylphenyl)-4-oxothiazolidin-2-ylidene)-3-(4-(3-(4-(trifluoromethoxy)phenyl)-1H-1,2,4-triazol-1-yl)phenyl)urea] | – | – | 50 to 100% | 50 to 100% | –
9 | Cc1cc(-c2ncn(-c3ccc(S(=O)(=O)C(F)(F)F)cc3)n2)ccc1NC(=O)/N=C1\SCC(=O)N1c1cc(C#N)ccc1OCCC(F)(F)F [Compound J376, (Z)-1-(3-(5-Cyano-2-(3,3,3-trifluoropropoxy)phenyl)-4-oxothiazolidin-2-ylidene)-3-(2-methyl-4-(1-(4-((trifluoromethyl)sulfonyl)phenyl)-1H-1,2,4-triazol-3-yl)phenyl)urea] | – | – | 50 to 100% | 50 to 100% | –
10 | COC(C)c1ccc(C)cc1N1C(=O)CS/C1=N\C(=O)Nc1ccc(-c2ncn(-c3ccc(C(F)(F)F)cn3)n2)cc1C (centres unmarked) [Compound J286, (Z)-1-(3-(2-(1-Methoxyethyl)-5-methylphenyl)-4-oxothiazolidin-2-ylidene)-3-(2-methyl-4-(1-(5-(trifluoromethyl)pyridin-2-yl)-1H-1,2,4-triazol-3-yl)phenyl)urea] | 50 to 100% | 50 to 100% | – | – | –
11 | Cc1ccc(COCC(F)(F)F)c(N2C(=O)CS/C2=N\C(=O)Nc2ccc(-c3ncn(-c4ccc(C(F)(F)F)nn4)n3)cc2F)c1 [Compound J394] | – | – | – | – | CL rating [1]: A (50-100); BAW rating [2]: A (50-100)
12 | Cc1cc(-c2ncn(-c3ccc(OC(F)(F)F)cn3)n2)ccc1NC(=O)/N=C1\SCC(=O)N1c1cc(N(C)C)ccc1C(C)C [Compound J251, (Z)-1-(3-(5-(Dimethylamino)-2-isopropylphenyl)-4-oxothiazolidin-2-ylidene)-3-(2-methyl-4-(1-(5-(trifluoromethoxy)pyridin-2-yl)-1H-1,2,4-triazol-3-yl)phenyl)urea] | 50 to 100% | 50 to 100% | – | – | –
13 | Cc1ccc(C(C)C)c(N2C(=O)CS/C2=N\C(=O)Nc2c(C)cc(-c3ncn(-c4ccc(OC(F)(F)F)cc4)n3)cc2C)c1 [Compound J95, (Z)-1-(2,6-Dimethyl-4-(1-(4-(trifluoromethoxy)phenyl)-1H-1,2,4-triazol-3-yl)phenyl)-3-(3-(2-isopropyl-5-methylphenyl)-4-oxothiazolidin-2-ylidene)urea] | 50 to 100% | 50 to 100% | – | – | –
14 | COC(C)c1ccc(C)cc1N1C(=O)CS/C1=N\C(=O)Nc1ccc(-c2ncn(-c3ccc(OC(F)(F)F)cn3)n2)cc1Cl (centres unmarked) [Compound J250, (Z)-1-(2-Chloro-4-(1-(5-(trifluoromethoxy)pyridin-2-yl)-1H-1,2,4-triazol-3-yl)phenyl)-3-(3-(2-(1-methoxyethyl)-5-methylphenyl)-4-oxothiazolidin-2-ylidene)urea] | 50 to 100% | 50 to 100% | – | – | –
15 | COC(C)c1ccc(C)cc1N1C(=O)CS/C1=N\C(=O)Nc1ccc(-c2cn(-c3ccc(C(F)(F)F)cn3)cn2)cc1 (centres unmarked) [Compound J518, (Z)-1-(3-(2-(1-Methoxyethyl)-5-methylphenyl)-4-oxothiazolidin-2-ylidene)-3-(4-(1-(5-(trifluoromethyl)pyridin-2-yl)-1H-imidazol-4-yl)phenyl)urea] | – | – | 50 to 100% | 50 to 100% | –
16 | Cc1ccc(N(C)C)c(N2C(=O)CS/C2=N\C(=O)Nc2ccc(-c3ncn(-c4ccc(OC(F)(F)F)cc4)n3)cc2)c1 [Compound J322, (Z)-1-(3-(2-(dimethylamino)-5-methylphenyl)-4-oxothiazolidin-2-ylidene)-3-(4-(1-(4-(trifluoromethoxy)phenyl)-1H-1,2,4-triazol-3-yl)phenyl)urea] | 50 to 100% | 50 to 100% | – | – | –
17 | COc1cc(COCC(F)(F)F)c(N2C(=O)CS/C2=N\C(=O)Nc2ccc(-c3ncn(-c4ccc(S(F)(F)(F)(F)F)cc4)n3)cc2C(F)(F)F)cc1OC [Compound J633, (Z)-1-(3-(4,5-Dimethoxy-2-((2,2,2-trifluoroethoxy)methyl)phenyl)-4-oxothiazolidin-2-ylidene)-3-(4-(1-(4-(pentafluoro-λ^6-sulfaneyl)phenyl)-1H-1,2,4-triazol-3-yl)-2-(trifluoromethyl)phenyl)urea] | – | – | 50 to 100% | 50 to 100% | –
18 | CCCNc1ccc(C(C)C)c(N2C(=O)CS/C2=N\C(=O)Nc2ccc(-c3ncn(-c4ccc(OC(F)(F)F)cc4)n3)cc2CC)c1 [Compound J159, (Z)-1-(2-Ethyl-4-(1-(4-(trifluoromethoxy)phenyl)-1H-1,2,4-triazol-3-yl)phenyl)-3-(3-(2-isopropyl-5-(propylamino)phenyl)-4-oxothiazolidin-2-ylidene)urea] | 50 to 100% | 50 to 100% | – | – | –
19 | CCOC(C)c1ccc(C)cc1N1C(=O)CS/C1=N\C(=O)Nc1ccc(-c2ncn(-c3ccc(S(F)(F)(F)(F)F)cc3)n2)cc1C(F)(F)F (centres unmarked) [Compound J631, (Z)-1-(3-(2-(1-Ethoxyethyl)-5-methylphenyl)-4-oxothiazolidin-2-ylidene)-3-(4-(1-(4-(pentafluoro-λ^6-sulfaneyl)phenyl)-1H-1,2,4-triazol-3-yl)-2-(trifluoromethyl)phenyl)urea] | – | – | 50 to 100% | 50 to 100% | –
20 | Cc1cc(COCC(F)(F)F)c(N2C(=O)CS/C2=N\C(=O)Nc2ccc(-c3ncn(-c4ccc(OC(F)(F)F)cc4)n3)cc2F)cc1C [Compound J455] | – | – | – | – | CL rating [1]: A (50-100); BAW rating [2]: A (50-100)
21 | Cc1ccc(OCCC(F)(F)F)c(N2C(=O)CS/C2=N\C(=O)Nc2ccc(-c3cn(-c4ccc(C(F)(F)F)cn4)cn3)cc2)c1 [Compound J522, (Z)-1-(3-(5-Methyl-2-(3,3,3-trifluoropropoxy)phenyl)-4-oxothiazolidin-2-ylidene)-3-(4-(1-(5-(trifluoromethyl)pyridin-2-yl)-1H-imidazol-4-yl)phenyl)urea] | – | – | 50 to 100% | 50 to 100% | –
22 | (Z)-1-(3-(5-ethoxy-2-((2,2,2-trifluoroethoxy)methyl)phenyl)-4-oxothiazolidin-2-ylidene)-3-(2-methyl-4-(1-(4-(trifluoromethoxy)phenyl))-1H-1,2,4-triazol-3-yl)phenyl)urea [Compound J575] | – | – | – | – | CL rating [1]: A (50-100); BAW rating [2]: A (50-100)
